This note sets out measurements from article PMC9601927 (Foods, 2022).

Molecules are shown by their SMILES. “Also recorded” adds a separate entry of the source.

Data set [1] in a line: ANC transmembrane transport across Caco-2 cell monolayer (Transwell, HPLC). To be noted: human, Caco-2. It is filed as in vitro ADME. As for the experimental part: In this work, we utilized and slightly modified a procedure from Zou et al. to perform ANC transport studies. Firstly, ANC commercial powder was pre-dissolved in ultra-pure water and phosphate-buffered solution (PBS, pH7.4) was used for FA-g-CS dissolving. Then, pre-warmed phosphate-buffered saline (PBS) was used to wash and equilibrate the Transwell. Subsequently, the transport buffer containing ANC was added to the basolateral (1.5 mL) or the apical (0.5 mL) side of the inserts, while the corresponding volume of transport buffer was added to the receiving container. Samples measuring 50 uL were taken after 1, 2, 3, and 4 h incubation, and the same amount of pre-warmed PBS was replenished immediately. The samples were treated with HCl and frozen until HPLC analysis. The ANC-absorption-enhancing studies with FA-g-CS across Caco-2 cells were conducted using a transport buffer containing FA-g-CS+ANC instead of ANC alone.
Transport efficiency (A→B (%)) was calculated according to the following formula: (concentrations of the compound at basolateral side overtime)/(concentrations of the compound at the apical side at zero hours) × 100. The apparent permeability coefficient (Papp) was defined as follows: Papp = (dQ/dt)(1/[AC0]); here, A represents the surface area of the Transwell, C0 represents the compound concentration added in the apical side, and the transport rate of the compound over time is denoted by dQ/dt.
On the technique in general: Caco-2 cells form a polarised layer with tight junctions and transporters.

The subject of data set [2] is GLUT2. Nature of the data set: Immunofluorescence staining of GLUT2 in Caco-2 cells. To be noted: ANC 2.3 × 10^−4 mg/mL or FA-g-CS 9 × 10^−5 mg/mL, 48 h. It counts as cell-based. As for the experimental part:
(§1) Immunofluorescence staining was carried out to further validate the effect of FA-g-CS/ANC on the expression of sGLT1 and GLUT2. In short, Caco-2 cells were transfected with NC siRNA (negative control), GLUT2-siRNA-2, and sGLT1-siRNA-3; then, they were seeded onto a 4-well slide and chamber (Watson, Kobe, Japan). Subsequently, cells were incubated with 0.09 µg/mL FA-g-CS, 0.23 µg/mL ANC, or their combination at 37 °C for 48 h. Then, they were fixed with 4% paraformaldehyde for 10 min and soaked with 0.5% Triton X-100 in PBS for 15 min. In this study, goat serum was used to avoid nonspecific binding at room temperature. After 30 min of treatments, the cells were incubated with the primary antibody ([…], Santa Cruz Biotechnology, with 1:100 dilutions) at 4 °C overnight, followed by incubation with the secondary antibody (goat anti-mouse IgG1-HRP, Santa Cruz Biotechnology, Shanghai, China, with 1:100 dilutions) for 1 h at 20–37 °C. Nuclear staining was performed with DAPI, and the images were captured with a fluorescence microscope (BX53, Olympus, Tokyo, Japan).

Data set [3] relates to GLUT2. Nature of the data set: Western blot of GLUT2 expression in Caco-2 cells after siRNA transfection and incubation. It counts as cell-based. As for the experimental part:
(§2) Firstly, the cells were washed twice with 1 mL of cold PBS and then lysed in 100 μL of ice-cold RIPA lysis buffer. Western blot analysis was performed following the previous method with minor modifications. Briefly, total protein samples were resolved by SDS-PAGE (8%, 10%, or 12%) and transferred to PVDF membranes blocked with 5% nonfat milk powder in TBST; these were then incubated with 8 μg of primary antibody at a dilution of 1:1000/500 (v/v) overnight at 4 °C. Detection was performed with 10 mL of ECL and oxidizing reagent and equal amounts of HRP-conjugated anti-mouse at a 1:5000 (v/v) dilution rate. To further illustrate the effect of FA-g-CS on the transmembrane transport of ANC, the Caco-2 cells were transfected with siRNA targeted to sGLT1 and GLUT2 (the optimal interference fragments screened by previous tests) and then incubated with FA-g-CS, ANC, or their combinations. Finally, the expressions of sGLT1 and GLUT2 were detected using a Western blot assay.
On the technique in general: A western blot detects proteins with antibodies after separation by electrophoresis.

A further data set relates to Caco-2 cells. It is filed as cell-based. To be noted: 2.3 × 10^−4 mg/mL ANC, 48 h. How it is done:
Due to cell membrane damage, the intracellular LDH was released into the culture medium. The LDH level was used as an indicator of irreversible cell death. The method used here was based on the spectrophotometric determination at 490 nm of NADH disappearance.
Upon exposure to different concentrations of ANC, FA-g-CS, or their combinations, the culture medium was aspirated and centrifuged at 400× g for 5 min in tubes with a porous matrix to acquire a cell-free supernatant. A measure of 120 microliters of media was mixed with 60 μL of reagent in a 96-well plate, and the absorbance was recorded with PerkinElmer EnVision. The cytotoxicity of these substances was reflected using the following Equation (2):(2) LDH activity(mU/mL)=ODsample−ODblank/ODstandard−ODblank of standard×1000 mU/mL where ODsample, ODblank, ODstandard, and ODblank represent the measurements of the sample, the blank, the standard, and the blank of standard, respectively.

Data set [4] relates to sGLT1. In words: Western blot of sGLT1 expression in Caco-2 cells after siRNA transfection and incubation. It is filed as cell-based. As for the experimental part: as §2
The subject of data set [5] is sGLT1. Nature of the data set: Immunofluorescence staining of sGLT1 in Caco-2 cells. The note with it: ANC 2.3 × 10^−4 mg/mL or FA-g-CS 9 × 10^−5 mg/mL, 48 h. It is filed as cell-based. As for the experimental part: as §1
Where [6] appears, read: cells treated with nonrelated and scrambled siRNA.
Where [7] appears, read: cells treated with siRNA transfection.
Setting [8] is: siRNA-transfected Caco-2 cells incubated with compounds (abstract).

Consider `OC[C@H]1O[C@@H](Oc2cc3c(O)cc(O)cc3[o+]c2-c2ccc(O)c(O)c2)[C@H](O)[C@@H](O)[C@@H]1O` [ANC, Cyanidin-3-glucoside], for which, in data set [1] (ANC 0.05 ×10^−3 mg/mL, 4 h), the apical-to-basolateral permeability (Papp A→B) at 4 h, 0.05 ×10^−3 mg/mL is 0.491 ± 0.058 ×10⁻⁶ cm/s and the Papp B→A at 4 h, 0.05 ×10^−3 mg/mL turned out to be 0.378 ± 0.048 ×10⁻⁶ cm/s. In addition, in data set [1] (ANC 0.05 ×10^−3 mg/mL, 4 h, read-out: Papp (B→A)/ Papp (A→B)), the efflux ratio at 4 h, 0.05 ×10^−3 mg/mL is 0.77. In addition, in data set [1] (ANC 0.10 ×10^−3 mg/mL, 4 h), the apparent permeability from apical to basolateral (Papp A→B) at 4 h, 0.1 ×10^−3 mg/mL was 0.961 ± 0.048 ×10⁻⁶ cm/s and the Papp B→A at 4 h, 0.1 ×10^−3 mg/mL turned out to be 0.719 ± 0.098 ×10⁻⁶ cm/s. For the same compound, the efflux ratio at 4 h, 0.1 ×10^−3 mg/mL in data set [1] (ANC 0.10 ×10^−3 mg/mL, 4 h, read-out: Papp (B→A)/ Papp (A→B)) turned out to be 0.75. Also, in data set [1] (ANC 0.15 ×10^−3 mg/mL, 4 h), the Papp A→B at 4 h, 0.15 ×10^−3 mg/mL is 1.5 ± 0.523 ×10⁻⁶ cm/s and the basolateral-to-apical permeability (Papp B→A) at 4 h, 0.15 ×10^−3 mg/mL turned out to be 1.94 ± 0.908 ×10⁻⁶ cm/s. Further, the efflux ratio at 4 h, 0.15 ×10^−3 mg/mL in data set [1] (ANC 0.15 ×10^−3 mg/mL, 4 h, read-out: Papp (B→A)/ Papp (A→B)) turned out to be 1.29. For the same compound, in data set [1] (ANC 0.20 ×10^−3 mg/mL, 4 h), the Papp A→B at 4 h, 0.2 ×10^−3 mg/mL worked out at 1.12 ± 0.108 ×10⁻⁶ cm/s and the Papp B→A at 4 h, 0.2 ×10^−3 mg/mL stood at 1.48 ± 0.048 ×10⁻⁶ cm/s. In data set [1] (ANC 0.20 ×10^−3 mg/mL, 4 h, read-out: Papp (B→A)/ Papp (A→B)), the efflux ratio at 4 h, 0.2 ×10^−3 mg/mL was 1.32. The same compound displayed a Papp at 4 h in data set [1] (ANC alone, overall statement) of less than 1 ×10⁻⁶ cm/s. For the same compound, the “protein level of GLUT2 (immunofluorescence) compared with the control cells” value with GLUT2 [2] was “increased”. Moreover, in the data set with GLUT2 [3] (setting [6]), the “expression of GLUT2 compared with the blank” value is “significantly elevated”. Also, in the data set on GLUT2 [3] (setting [7]), the “expression level of GLUT2 compared with the blank control” value is listed as “significantly increased”. In the data set on GLUT2 [3] (setting [8]), the “increased GLUT2 expression” value is reported as less than 60%. Further, the “cell cytotoxicity (LDH assay)” value in the data set on Caco-2 cells was “negligible increase; also recorded: not toxic”. Besides, the “expression of sGLT1 compared with the blank” value with sGLT1 [4] (setting [6]) is given as “significantly elevated”. The “expression level of sGLT1 compared with the blank control” value with sGLT1 [4] (setting [7]) is “significantly increased”. For the same compound, the “increased sGLT1 expression” value with sGLT1 [4] (setting [8]) is reported as less than 60%. In the data set with sGLT1 [5], the “protein level of sGLT1 (immunofluorescence) compared with the control cells” value is given as “increased”.

A word on the Papp A→B: it is how fast a substance crosses the layer from the apical side. Read a low Papp A→B as poor permeation. As usually defined, the Papp B→A is the apparent permeability from the basolateral to the apical side of a cell layer. What is called Papp is the rate of passage across a membrane or cell layer, normalised by area and donor concentration.
